Laboratory results from patent US8841291B2, “Selective hydroxamic acid based MMP-12 and MMP-13 inhibitors” (Novartis AG, priority 2008, dated 2014).

Legend:
[1] = target: T1, Gelatinase (MMP-2) (Homo sapiens, UniProt P08253); test: Gelatinase (MMP-2) inhibitory activity, fluorogenic peptide substrate assay; format: biochemical; details: substrate 5 μM, 60 min preincubation, 20-25° C.; read-out: MMP2 IC50
T1 sequence (P08253 110-660): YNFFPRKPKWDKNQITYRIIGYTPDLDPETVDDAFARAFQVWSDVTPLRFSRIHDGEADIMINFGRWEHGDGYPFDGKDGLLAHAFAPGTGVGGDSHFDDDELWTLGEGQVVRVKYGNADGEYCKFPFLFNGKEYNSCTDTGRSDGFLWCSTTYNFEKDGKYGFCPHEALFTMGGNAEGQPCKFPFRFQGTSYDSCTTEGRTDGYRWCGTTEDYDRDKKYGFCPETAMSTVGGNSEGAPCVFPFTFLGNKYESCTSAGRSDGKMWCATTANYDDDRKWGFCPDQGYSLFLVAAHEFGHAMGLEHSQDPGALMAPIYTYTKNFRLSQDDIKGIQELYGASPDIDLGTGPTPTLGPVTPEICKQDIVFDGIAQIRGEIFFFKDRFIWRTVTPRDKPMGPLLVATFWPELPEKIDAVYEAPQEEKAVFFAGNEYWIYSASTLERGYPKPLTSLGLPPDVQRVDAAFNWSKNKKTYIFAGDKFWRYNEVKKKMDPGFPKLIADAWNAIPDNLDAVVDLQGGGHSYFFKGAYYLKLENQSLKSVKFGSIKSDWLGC
Method: (§1) Stock solutions of inhibitors (0.03 mM-3 mM) are also prepared in DMSO. The inhibitors are diluted into the assay solutions, and the controls use an equal volume of DMSO so that the final DMSO concentration from the inhibitor and substrate dilutions in all assays is 1.0%. Assays are performed in an assay buffer (100 mM sodium chloride, 10 μM ZnCl. Sub 2, 10 mM CaCl2, 100 mM Tris-Cl pH7.5, 0.05% Brij-35), containing 1.0% DMSO from the substrate and inhibitor additions. The substrate concentration used in the assays is 5 μM. The assays are carried out at 20-25° C. […] The reaction mixtures are added in duplicate into appropriate wells of a 384-well assay plate. The reaction mixtures are preincubated with the inhibitors for 60 minutes The reactions are started by the addition of MMP substrate, and the fluorescence intensity changes are measured after 60 minutes The apparent enzyme activity in the presence of an inhibitor is then compared with that in the absence of any inhibitor to determine the inhibition effect of the inhibitor.

[2] = target: Collagenase-3 (MMP-13) (Homo sapiens, UniProt P45452); test: Collagenase-3 (MMP-13) inhibitory activity, fluorogenic peptide substrate assay; format: biochemical; details: recombinant pro-collagenase-3 activated with 1 mM APMA; read-out: MMP13 IC50
Method: as §1
Collagenase-3 (MMP-13) inhibitory activity is determined as described above. Recombinant pro-collagenase-3 is activated with 1 mM APMA, and stored in the assay buffer after extensive dialysis in the assay buffer.

Row | IC50 [1] [nM] | IC50 [2] [nM] | Compound
1 | 3110 | 67.3 | Cc1ccc(C)c(OCCN([C@@H](C(=O)NO)C(C)C)S(=O)(=O)c2ccc3ccccc3c2)c1C [Example 75, N-(2-(2,3,6-trimethylphenoxy)ethyl)-N-(naphthalene-2-sulfonyl)-D-valine hydroxamic acid]
2 | 765 | 225 | CC(C)(C)[C@@H](NS(=O)(=O)c1ccc2ncccc2c1)C(=O)NO [Example 92, (R)—N-Hydroxy-3,3-dimethyl-2-(quinoline-6-sulfonylamino)-butyramide]
3 | 898 | 16.1 | CC(C)[C@H](C(=O)NO)N(CCOc1ccccc1Cl)S(=O)(=O)c1ccc2ccccc2c1 [Example 64, N-(2-(2-chlorophenoxy)ethyl)-N-(naphthalene-2-sulfonyl)-D-valine hydroxamic acid]
4 | – | 10200 | COc1ccc(S(=O)(=O)N2CC=CC[C@@H]2C(=O)NO)cc1OC [Example 97, (R)-1-(3,4-Dimethoxy-benzenesulfonyl)-1,2,3,6-tetrahydro-pyridine-2-carboxylic acid hydroxyamide]
5 | 713 | 63 | CC(C)CCN([C@@H](C(=O)NO)C(C)C)S(=O)(=O)c1nc2ccccc2s1 [Example 98, (R)-2-[(Benzothiazole-2-sulfonyl)-(3-methyl-butyl)-amino]-N-hydroxy-3-methyl-butyramide]
6 | 600 | 90 | CC(C)(C)[C@@H](NS(=O)(=O)c1ccc2ccccc2c1)C(=O)NO [Example 93, (R)—N-Hydroxy-3,3-dimethyl-2-(naphthalene-2-sulfonylamino)-butyramide]
7 | 0.4 | 0.4 | CC(C)(C)OC(=O)N1CCC([C@@H](NS(=O)(=O)c2ccc3ccccc3c2)C(=O)NO)CC1 [Example 74, 4-[Hydroxycarbamoyl-(naphthalene-2-sulfonylamino)-methyl]-piperidine-1-carboxylic acid tert-butyl ester]
8 | 976 | 28.7 | CCOc1ccc2ccc(S(=O)(=O)N(Cc3cccnc3)[C@@H](C(=O)NO)C(C)C)cc2c1 [Example 68, 2-[(7-Ethoxy-naphthalene-2-sulfonyl)-pyridin-3-ylmethyl-amino]-N-hydroxy-3-methyl-butyramide]
9 | > 1000 | 52.1 | CC(C)CCN([C@@H](C(=O)NO)C(C)C)S(=O)(=O)c1ccc2ccc(N)cc2c1 [Example 84, 2-[(7-Amino-naphthalene-2-sulfonyl)-(3-methyl-butyl)-amino]-N-hydroxy-3-methyl-butyramide]
10 | 940 | 212 | CC(C)CCN(C1(C(=O)NO)CCCC1)S(=O)(=O)c1ccc2ccccc2c1 [Example 70, 1-[(3-Methyl-butyl)-(naphthalene-2-sulfonyl)-amino]-cyclopentanecarboxylic acid hydroxyamide]
11 | 3350 | 134 | Cc1ccc2ccc(S(=O)(=O)N(CCC(C)C)[C@@H](C(=O)NO)C(C)C)cc2c1 [Example 85, N-isoamyl-N-(6-methylnaphthalene-2-sulfonyl)-D-valine hydroxamic acid]
12 | – | 326 | O=C(NO)[C@H]1CC=CCN1S(=O)(=O)c1ccc(N2CCOCC2)nc1 [Example 96, (R)-1-(6-Morpholin-4-yl-pyridine-3-sulfonyl)-1,2,3,6-tetrahydro-pyridine-2-carboxylic acid hydroxyamide]
13 | – | 37 | CN1CCOc2cc(S(=O)(=O)N3CC=CC[C@@H]3C(=O)NO)ccc21 [Example 94, (R)-1-(4-Methyl-3,4-dihydro-2H-benzo[1,4]oxazine-7-sulfonyl)-1,2,3,6-tetrahydro-pyridine-2-carboxylic acid hydroxyamide]

Second part, the compound before the results:

Row | Compound | IC50 [1] [nM] | IC50 [2] [nM]
14 | O=C(NO)[C@H]1CCCCCN1S(=O)(=O)c1ccc2ccccc2c1 [Example 33, (R)-1-(Naphthalene-2-sulfonyl)-azepane-2-carboxylic acid hydroxyamide] | 74.5 | 8.7
15 | C#CC[C@H](C(=O)NO)N(CC=C)S(=O)(=O)c1ccc2ccccc2c1 [Example 8, (R)-2-[Allyl-(naphthalene-2-sulfonyl)-amino]-pent-4-ynoic acid hydroxyamide] | 125 | 3.5
16 | CC(C)[C@H](C(=O)NO)N(CCCc1ccccc1)S(=O)(=O)c1ccc2ccc(N)cc2c1 [Example 38, 2-[(7-Amino-naphthalene-2-sulfonyl)-(3-phenyl-propyl)-amino]-N-hydroxy-3-methyl-butyramide] | > 300 | 190
17 | CC(C)CCN([C@H](Cc1ccc(OCc2ccccc2)cc1)C(=O)NO)S(=O)(=O)c1ccc2ccccc2c1 [Example 25, (R)-3-(4-Benzyloxy-phenyl)-N-hydroxy-2-[(3-methyl-butyl)-(naphthalene-2-sulfonyl)-amino]-propionamide] | 1960 | 44.1
18 | CC(C)C[C@@H](NS(=O)(=O)c1ccc2ccccc2c1)C(=O)NO [Example 5, 4-Methyl-2-(naphthalene-2-sulfonylamino)-pentanoic acid hydroxyamide] | 57.5 | 40.5
19 | CC(C)[C@H](C(=O)NO)N(CCOc1cccc(Cl)c1)S(=O)(=O)c1ccc2ccccc2c1 [Example 62, N-(2-(3-chlorophenoxy)ethyl)-N-(naphthalene-2-sulfonyl)-D-valine hydroxamic acid] | 3890 | 138
20 | CC(C)CCN([C@@H](C(=O)NO)C(C)C)S(=O)(=O)c1ccc2ccccc2c1O [Example 1, (R)—N-Hydroxy-2-[(1-hydroxy-naphthalene-2-sulfonyl)-(3-methyl-butyl)-amino]-3-methyl-butyramide] | > 3000 | 672
21 | CC(C)CCN([C@@H](C(=O)NO)C(C)C)S(=O)(=O)c1ccc2cc(N)ccc2c1 [Example 51, 2-[(6-Amino-naphthalene-2-sulfonyl)-(3-methyl-butyl)-amino]-N-hydroxy-3-methyl-butyramide] | 1130 | 90
22 | O=C(NO)[C@H]1CCCCN1S(=O)(=O)c1ccc2ccccc2c1 [Example 9, (R)-1-(Naphthalene-2-sulfonyl)-piperidine-2-carboxylic acid hydroxyamide] | 48.8 | 4.9
23 | C=CC[C@@H](NS(=O)(=O)c1ccc2ccccc2c1)C(=O)NO [Example 3, (R)-2-(Naphthalene-2-sulfonylamino)-pent-4-enoic acid hydroxyamide] | 22.2 | 35.6
24 | C=CCN([C@@H](C(=O)NO)C(C)C)S(=O)(=O)c1ccc2ccccc2c1 [Example 24, (R)-2-[Allyl-(naphthalene-2-sulfonyl)-amino]-N-hydroxy-3-methyl-butyramide] | 90.4 | 3.4
25 | C=CC1=CCN(S(=O)(=O)c2ccc3ccccc3c2)[C@@H](C(=O)NO)C1 [Example 44, (R)-1-(Naphthalene-2-sulfonyl)-4-vinyl-1,2,3,6-tetrahydro-pyridine-2-carboxylic acid hydroxyamide] | 30.1 | 1.8
26 | CC(C)CCOc1ccc2ccc(S(=O)(=O)N(CCC(C)C)[C@@H](C(=O)NO)C(C)C)cc2c1 [Example 86, (R)—N-Hydroxy-3-methyl-2-[[7-(3-methyl-butoxy)-naphthalene-2-sulfonyl]-(3-methyl-butyl)-amino]-butyramide] | > 10000 | 3250
27 | CCOc1ccc2ccc(S(=O)(=O)N(Cc3ccccc3)[C@@H](C(=O)NO)C(C)C)cc2c1 [Example 27, 2-[Benzyl-(7-ethoxy-naphthalene-2-sulfonyl)-amino]-N-hydroxy-3-methyl-butyramide] | 4400 | 535
28 | CC(C)[C@H](C(=O)NO)N(CCOc1ccc(F)cc1)S(=O)(=O)c1ccc2ccccc2c1 [Example 41, N-(2-(4-fluorophenoxy)ethyl)-N-(naphthalene-2-sulfonyl)-D-valine hydroxamic acid] | 1130 | 38.7
29 | O=C(NO)C1(NS(=O)(=O)c2ccc3ccccc3c2)CCCCC1 [Example 19, 1-(Naphthalene-2-sulfonylamino)-cyclohexanecarboxylic acid hydroxyamide] | 451 | 727
30 | O=C(NO)[C@H]1CC=C(c2ccccc2)CN1S(=O)(=O)c1ccc2ccccc2c1 [Example 39, (R)-1-(Naphthalene-2-sulfonyl)-5-phenyl-1,2,3,6-tetrahydro-pyridine-2-carboxylic acid hydroxyamide] | 27.8 | 1.4
31 | CC(C)CCNc1ccc2ccc(S(=O)(=O)N(CCC(C)C)[C@@H](C(=O)NO)C(C)C)cc2c1 [Example 57, N-Hydroxy-3-methyl-2-{(3-methyl-butyl)-[7-(3-methyl-butylamino)-naphthalene-2-sulfonyl]-amino}-butyramide] | > 3000 | 1580
32 | O=C(NO)[C@H]1CCCN1S(=O)(=O)c1ccc2ccccc2c1 (stereo in doubt) [Example 52, 1-(Naphthalene-2-sulfonyl)-pyrrolidine-2-carboxylic acid hydroxyamide] | 350 | 293
33 | (R)-1-(2,3,4a,8a-Tetrahydro-benzo[1,4]dioxine-6-sulfonyl)-1,2,3,6-tetrahydro-pyridine-2-carboxylic acid hydroxyamide [Example 95] | – | 2.6
